From US20260250318A1, “COMPOSITIONS AND METHODS FOR CROSSING THE BLOOD BRAIN BARRIER” (VOYAGER THERAPEUTICS, INC., priority 2022, published 2026)

Key:
Conditions in all cases: synthetic library passage 3, intravenous, relative to wild-type AAV9
[1] = system: brain, spinal cord, and DRG of the NHPs; test: NGS fold enrichment of synthetic library (passage 3) in NHPs, first cross-species screen; type: in vivo, cynomolgus macaques (Macaca fascicularis)
Summary of the method: (§1)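 Synthetic capsid library (passage 3) was given intravenously […] to NHPs aged 2-4 years and to BALB/c and C57Bl/6 mice (n=3 each, 6-8 weeks). After about 28 days in vivo, tissue RNA was RT-PCR amplified and NGS-sequenced; values are fold enrichment per variant relative to wild-type AAV9.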

brain [2] = test: NGS fold enrichment of synthetic library (passage 3) in BALB/c mice, first cross-species screen; type: in vivo
Summary of the method: as §1

brain [3] = test: NGS fold enrichment of synthetic library (passage 3) in C57Bl/6 mice, first cross-species screen; type: in vivo
Summary of the method: as §1

[4] = RNA from spinal cord of NHPs, NGS
[5] = RNA from brain of BALB/c mice, NGS
[6] = RNA from brain of C57Bl/6 mice, NGS

Sequence | Fold enrichment over AAV9 in the brain of NHPs ([1]; RNA NGS, brain of NHPs) [fold] | Fold enrichment over AAV9 in the spinal cord of NHPs ([1]; RNA NGS, spinal cord of NHPs) [fold] | Fold enrichment over AAV9 in the brain of Mice (BALB/c) (brain [2]; RNA NGS, brain of BALB/c mice) [fold] | Fold enrichment over AAV9 in the brain of Mice (C57Bl/6) (brain [3]; RNA NGS, brain of C57Bl/6 mice) [fold] | Fold enrichment over AAV9 in the brain of NHPs ([1]; RNA from brain of NHPs, NGS) [fold] | Fold enrichment over AAV9 in the spinal cord of NHPs [1, 4] [fold] | Fold enrichment over AAV9 in the brain of Mice (BALB/c) (brain [2]; [5]) [fold] | Fold enrichment over AAV9 in the brain of Mice (C57Bl/6) (brain [3]; [6]) [fold]
GSGQNQQLANMVTT | 1.014 | 1.739 | 0.987 | 1.253 |  |  |  | 
GSGQNQQLGSRQCT | 1.102 | 0.183 | 0.407 | 0.987 |  |  |  | 
GSGQNQQLKENRST | 2.765 | 0.062 | 1.118 | 1.149 |  |  |  | 
GSGQNQQLKNSTST |  |  |  |  | 1.235 | 1.703 | 0.538 | 1.063
GSGQNQQLKSSAQT | 1.891 | 1.197 | 0.716 | 0.908 |  |  |  | 
GSGQNQQLPHSNLT | 1.521 | 1.838 | 0.283 | 0.442 |  |  |  | 
GSGQNQQLQTLIRT | 1.538 | 1.425 | 0.514 | 0.813 |  |  |  | 
GSGQNQQLSAKSST | 1.809 | 1.567 | 1.115 | 1.224 |  |  |  | 
GSGQNQQLSGKSVT | 1.070 | 1.524 | 0.930 | 1.276 |  |  |  | 
GSGQNQQLSRDAST | 1.754 | 3.716 | 0.611 | 1.877 |  |  |  | 
GSGQNQQLVSRVQT |  |  |  |  | 1.381 | 1.195 | 0.466 | 0.656
GSGQNQQMAGAFRT | 1.003 | 1.784 | 0.762 | 1.307 |  |  |  | 
GSGQNQQMPGLSST |  |  |  |  | 1.204 | 1.887 | 0.181 | 0.234
GSGQNQQNLGKLNT |  |  |  |  | 1.141 | 0.000 | 0.687 | 0.919
GSGQNQQPHLKSLT | 1.457 | 5.016 | 0.740 | 1.096 |  |  |  | 
GSGQNQQPLDTSRT | 1.015 | 0.775 | 0.376 | 0.491 |  |  |  | 
GSGQNQQPNSGSMT | 1.064 | 0.925 | 0.339 | 0.588 |  |  |  | 
GSGQNQQPPLATRT |  |  |  |  | 1.386 | 2.295 | 0.287 | 0.593
GSGQNQQPSAFSKT |  |  |  |  | 1.220 | 4.906 | 0.754 | 1.309
GSGQNQQPSLRQST |  |  |  |  | 1.356 | 2.905 | 0.554 | 1.315

Sequence | Fold enrichment over AAV9 in the brain of NHPs ([1]; RNA NGS, brain of NHPs) [fold] | Fold enrichment over AAV9 in the spinal cord of NHPs ([1]; RNA NGS, spinal cord of NHPs) [fold] | Fold enrichment over AAV9 in the brain of Mice (BALB/c) (brain [2]; RNA NGS, brain of BALB/c mice) [fold] | Fold enrichment over AAV9 in the brain of Mice (C57Bl/6) (brain [3]; RNA NGS, brain of C57Bl/6 mice) [fold] | Fold enrichment over AAV9 in the brain of NHPs ([1]; RNA from brain of NHPs, NGS) [fold] | Fold enrichment over AAV9 in the spinal cord of NHPs [1, 4] [fold] | Fold enrichment over AAV9 in the brain of Mice (BALB/c) (brain [2]; [5]) [fold] | Fold enrichment over AAV9 in the brain of Mice (C57Bl/6) (brain [3]; [6]) [fold]
GSGQNQQPSSRVTT | 1.012 | 2.179 | 0.504 | 0.784 |  |  |  | 
GSGQNQQQIGGNST | 1.741 | 6.169 | 0.576 | 0.877 |  |  |  | 
GSGQNQQQRDGTLT |  |  |  |  | 1.152 | 0.387 | 0.730 | 0.760
GSGQNQQRNSDSVT | 1.829 | 0.000 | 0.842 | 1.238 |  |  |  | 
GSGQNQQSALRTQT | 1.568 | 1.913 | 1.421 | 1.581 |  |  |  | 
GSGQNQQSANKILT |  |  |  |  | 1.331 | 3.789 | 1.236 | 0.894
GSGQNQQSAREGLT | 3.111 | 5.632 | 1.104 | 1.221 |  |  |  | 
GSGQNQQSGRGDLT | 2.019 | 6.919 | 1.152 | 0.524 |  |  |  | 
GSGQNQQSGTFLST | 1.090 | 5.673 | 0.742 | 1.021 |  |  |  | 
GSGQNQQSHGRIGT |  |  |  |  | 1.173 | 5.117 | 0.455 | 0.607
GSGQNQQSHLRTNT |  |  |  |  | 1.251 | 4.583 | 0.718 | 1.022
GSGQNQQSKQQVLT | 1.019 | 1.494 | 1.256 | 1.428 |  |  |  | 
GSGQNQQSLSGSFT | 1.105 | 0.735 | 0.883 | 0.745 |  |  |  | 
GSGQNQQSMADHTT | 1.494 | 1.728 | 0.215 | 0.428 |  |  |  | 
GSGQNQQSMGTFTT | 1.625 | 0.000 | 0.399 | 1.792 |  |  |  | 
GSGQNQQSNWITKT | 2.711 | 0.000 | 0.634 | 0.540 |  |  |  | 
GSGQNQQSQYMPRT |  |  |  |  | 1.234 | 0.401 | 0.520 | 0.549
GSGQNQQSSFNVQT | 0.998 | 0.000 | 0.675 | 1.307 |  |  |  | 
GSGQNQQSTGTSRT | 1.103 | 4.054 | 0.935 | 1.209 |  |  |  | 
GSGQNQQTAHAFNI |  |  |  |  | 1.132 | 3.404 | 0.729 | 0.699
